From patent US20250367166A1, “NEXT GENERATION DIPROVOCIMS THAT ACTIVATE THE INNATE AND ADAPTIVE IMMUNE RESPONSE” (The Scripps Research Institute, priority 2022, published 2025) come the findings set out here.

Read-outs that look alike come from different tables or passages of the source.

Experiment [1] deals with TLR1/TLR2 (Mus musculus, UniProt Q9EPQ1+Q9QUN7). The experiment in a line: TNF-α release from thioglycolate-elicited mouse peritoneal macrophages (ELISA). Conditions: for Emax: 4 h, read-out: Efficacy (magnitude) of response versus diprovocim-1 (100%), mouse macrophages. Background: An ELISA detects its analyte on a solid surface through an enzyme-linked reagent.
Experiment [2] concerns the target TLR1/TLR2 (Homo sapiens, UniProt O60603+Q15399). Put plainly: TNF-α release from PMA-differentiated human THP-1 cells (ELISA).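 As to all read-outs here: cells exposed to graded compound concentrations for 4 h, TNF-α quantified in supernatant, LPS as positive and DMSO as negative control, values are duplicate means.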 Particulars: for Emax: THP-1, 4 h, read-out: Efficacy (magnitude) of response versus diprovocim-1 (100%), THP-1.
Where [3] appears, read: read-out: EC50 (nM) (mouse): EC50 TNF-α release from mouse macrophages, Table 4.
Setting [4] is: read-out: EC50 (nM) (THP-1): EC50 TNF-α release from human THP-1 cells, Table 4.
Where [5] appears, read: read-out: EC50 (nM) (mouse): EC50 TNF-α release from mouse macrophages, Table 5.
The mark [6] stands for this setting: read-out: EC50 (nM) (THP-1): EC50 TNF-α release from human THP-1 cells, Table 5.
Where [7] appears, read: read-out: EC50 (nM) (mouse): EC50 TNF-α release from mouse macrophages, Table 3.
Setting [8] is: read-out: EC50 (nM) (THP-1): EC50 TNF-α release from human THP-1 cells, Table 3.
The mark [9] stands for this setting: read-out: EC50 (nM) (mouse): EC50 TNF-α release from mouse macrophages, Table 6.
[10] abbreviates: read-out: EC50 (nM) (THP-1): EC50 TNF-α release from human THP-1 cells, Table 6.
The mark [11] stands for this setting: read-out: EC50 (nM) (THP-1): EC50 TNF-α release from human THP-1 cells, Table 2.

Chain of TLR1/TLR2 (Mus musculus, UniProt Q9EPQ1+Q9QUN7) (Q9EPQ1 26-795): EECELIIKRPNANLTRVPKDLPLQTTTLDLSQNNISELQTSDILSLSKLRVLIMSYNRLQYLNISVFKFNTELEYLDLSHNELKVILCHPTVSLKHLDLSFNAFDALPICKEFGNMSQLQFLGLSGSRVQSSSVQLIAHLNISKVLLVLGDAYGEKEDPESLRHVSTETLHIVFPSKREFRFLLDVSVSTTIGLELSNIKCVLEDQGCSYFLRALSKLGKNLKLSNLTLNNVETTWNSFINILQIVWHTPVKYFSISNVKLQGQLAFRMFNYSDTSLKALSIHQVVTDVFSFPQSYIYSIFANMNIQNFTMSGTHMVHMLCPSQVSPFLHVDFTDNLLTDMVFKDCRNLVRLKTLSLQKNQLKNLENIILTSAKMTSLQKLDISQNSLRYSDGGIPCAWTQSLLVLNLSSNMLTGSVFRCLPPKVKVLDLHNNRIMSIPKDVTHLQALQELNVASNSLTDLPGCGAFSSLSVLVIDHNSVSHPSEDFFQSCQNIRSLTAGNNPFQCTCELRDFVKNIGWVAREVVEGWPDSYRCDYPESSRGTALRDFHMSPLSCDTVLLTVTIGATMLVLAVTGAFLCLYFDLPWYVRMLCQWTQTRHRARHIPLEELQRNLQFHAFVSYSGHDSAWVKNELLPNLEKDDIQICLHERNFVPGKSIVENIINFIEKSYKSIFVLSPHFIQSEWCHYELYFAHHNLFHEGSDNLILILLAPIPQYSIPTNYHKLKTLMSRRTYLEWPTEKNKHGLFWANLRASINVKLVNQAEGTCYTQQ
Chain of TLR1/TLR2 (Mus musculus, UniProt Q9EPQ1+Q9QUN7) (Q9QUN7 25-784): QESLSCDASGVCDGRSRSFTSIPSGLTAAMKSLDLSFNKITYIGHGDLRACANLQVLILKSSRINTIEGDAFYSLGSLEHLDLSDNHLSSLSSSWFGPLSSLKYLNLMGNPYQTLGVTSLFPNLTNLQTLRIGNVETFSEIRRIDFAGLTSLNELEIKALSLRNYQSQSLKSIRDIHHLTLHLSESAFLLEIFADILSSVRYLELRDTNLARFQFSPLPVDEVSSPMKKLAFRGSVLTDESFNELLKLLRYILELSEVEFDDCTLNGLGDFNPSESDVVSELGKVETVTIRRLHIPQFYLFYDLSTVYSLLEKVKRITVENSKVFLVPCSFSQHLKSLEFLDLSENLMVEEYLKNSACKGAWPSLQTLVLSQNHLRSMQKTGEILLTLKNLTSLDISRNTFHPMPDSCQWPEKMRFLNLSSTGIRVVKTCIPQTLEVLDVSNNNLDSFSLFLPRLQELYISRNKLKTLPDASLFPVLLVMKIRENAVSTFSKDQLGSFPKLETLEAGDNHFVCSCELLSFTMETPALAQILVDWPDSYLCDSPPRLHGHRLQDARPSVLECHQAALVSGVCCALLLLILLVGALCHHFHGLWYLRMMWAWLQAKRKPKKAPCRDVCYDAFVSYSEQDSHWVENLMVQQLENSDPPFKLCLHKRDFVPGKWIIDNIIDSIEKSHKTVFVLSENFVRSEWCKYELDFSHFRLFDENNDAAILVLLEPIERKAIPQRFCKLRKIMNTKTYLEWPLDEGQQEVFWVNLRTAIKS
Chain of TLR1/TLR2 (Homo sapiens, UniProt O60603+Q15399) (Q15399 25-786): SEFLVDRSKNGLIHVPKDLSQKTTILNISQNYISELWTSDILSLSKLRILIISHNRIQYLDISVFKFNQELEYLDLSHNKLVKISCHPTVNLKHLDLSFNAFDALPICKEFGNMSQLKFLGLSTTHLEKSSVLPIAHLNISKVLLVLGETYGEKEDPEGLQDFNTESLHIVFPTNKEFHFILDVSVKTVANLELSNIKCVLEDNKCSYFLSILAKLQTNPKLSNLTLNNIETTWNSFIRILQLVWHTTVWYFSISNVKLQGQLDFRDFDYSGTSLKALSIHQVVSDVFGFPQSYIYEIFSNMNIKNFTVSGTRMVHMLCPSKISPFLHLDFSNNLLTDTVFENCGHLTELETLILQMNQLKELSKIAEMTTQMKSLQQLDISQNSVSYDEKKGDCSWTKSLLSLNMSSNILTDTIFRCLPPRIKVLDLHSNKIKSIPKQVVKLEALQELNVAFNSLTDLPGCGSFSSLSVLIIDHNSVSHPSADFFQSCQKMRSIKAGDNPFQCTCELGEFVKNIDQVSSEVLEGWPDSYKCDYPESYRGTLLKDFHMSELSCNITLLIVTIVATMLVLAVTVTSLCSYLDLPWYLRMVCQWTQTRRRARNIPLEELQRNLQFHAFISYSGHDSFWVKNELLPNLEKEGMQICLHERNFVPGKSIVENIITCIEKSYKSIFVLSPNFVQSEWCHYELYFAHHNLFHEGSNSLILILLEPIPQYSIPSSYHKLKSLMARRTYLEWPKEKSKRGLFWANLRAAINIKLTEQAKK
Chain of TLR1/TLR2 (Homo sapiens, UniProt O60603+Q15399) (O60603 21-784): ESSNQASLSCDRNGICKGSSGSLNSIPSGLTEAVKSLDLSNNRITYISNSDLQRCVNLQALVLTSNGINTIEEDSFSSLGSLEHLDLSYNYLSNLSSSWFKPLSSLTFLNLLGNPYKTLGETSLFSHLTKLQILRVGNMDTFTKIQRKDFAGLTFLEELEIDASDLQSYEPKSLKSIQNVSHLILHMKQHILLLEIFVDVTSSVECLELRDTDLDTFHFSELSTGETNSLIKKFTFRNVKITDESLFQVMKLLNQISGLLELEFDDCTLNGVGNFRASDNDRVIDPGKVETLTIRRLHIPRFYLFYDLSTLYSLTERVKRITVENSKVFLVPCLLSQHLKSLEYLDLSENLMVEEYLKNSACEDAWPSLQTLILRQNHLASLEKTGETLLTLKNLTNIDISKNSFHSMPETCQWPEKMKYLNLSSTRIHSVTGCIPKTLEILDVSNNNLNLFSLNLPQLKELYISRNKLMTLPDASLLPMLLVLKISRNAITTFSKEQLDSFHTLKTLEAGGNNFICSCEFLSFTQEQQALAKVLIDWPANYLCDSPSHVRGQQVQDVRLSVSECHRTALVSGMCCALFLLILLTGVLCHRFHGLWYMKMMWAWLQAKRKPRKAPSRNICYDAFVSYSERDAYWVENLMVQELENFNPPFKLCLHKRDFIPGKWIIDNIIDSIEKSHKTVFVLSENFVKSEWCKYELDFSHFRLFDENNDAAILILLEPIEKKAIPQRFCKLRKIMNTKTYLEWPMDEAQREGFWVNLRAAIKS

Broadly, the EC50 is the concentration that produces a half-maximal response. For `CC(C)(C)OC(=O)NCCOCCOCCOCCOCCC(=O)OCCCCCCCCCCCCNC(=O)[C@@H]1CN(C(=O)c2ccc(C(=O)N3C[C@@H](C(=O)N[C@H]4C[C@@H]4c4ccccc4)[C@H](C(=O)N[C@H]4C[C@@H]4c4ccccc4)C3)cc2)C[C@H]1C(=O)N[C@H]1C[C@@H]1c1ccccc1` [Compound 55, 12-((3S,4S)-1-(4-((3S,4S)-3,4-Bis(((1S,2R)-2-phenyl-cyclopropyl)carbamoyl)pyrrolidine-1-carbonyl)-benzoyl)-4-(((1S,2R)-2-phenylcyclopropyl)carbamoyl)-pyrrolidine-3-carboxamido)-dodecyl 2,2-dimethyl-4-oxo-3,8,11,14,17-pentaoxa-5-azaicosan-20-oate], the Emax in experiment [1] is 150%; in experiment [2] it was 90%. In addition, the EC50 in experiment [1] (setting [3]) is 3.4 nM; in experiment [2] (setting [4]) it was 0.26 nM. Also, the “reduction in activity relative to diprovocim-1” value in experiment [2] was “two-fold reduction in activity”.

On to `CSCC[C@H](NC(=O)OC(C)(C)C)C(=O)OCCCCCCCCCCCCNC(=O)[C@@H]1CN(C(=O)c2ccc(C(=O)N3C[C@@H](C(=O)N[C@H]4C[C@@H]4c4ccccc4)[C@H](C(=O)N[C@H]4C[C@@H]4c4ccccc4)C3)cc2)C[C@H]1C(=O)N[C@H]1C[C@@H]1c1ccccc1` [Compound 67, (S)-12-((3S,4S)-1-(4-((3S,4S)-3,4-Bis(((1S,2R)-2-phenylcyclopropyl)carbamoyl)pyrrolidine-1-carbonyl)-benzoyl)-4-(((1S,2R)-2-phenylcyclopropyl)carbamoyl)-pyrrolidine-3-carboxamido)-dodecyl 2-((tert-butoxy-carbonyl)amino)-4-(methylthio)butanoate], for which the values for the Emax in experiment [1] and in experiment [2] were 150% and 100%, respectively. Further, the values for the 50% effective concentration (EC50) in experiment [1] (setting [5]) and in experiment [2] (setting [6]) were 44 nM and 2.8 nM, respectively.

Take `CN(C)CC(=O)OCCCCCCCCCCCCNC(=O)[C@@H]1CN(C(=O)c2ccc(C(=O)N3C[C@@H](C(=O)N[C@H]4C[C@@H]4c4ccccc4)[C@H](C(=O)N[C@H]4C[C@@H]4c4ccccc4)C3)cc2)C[C@H]1C(=O)N[C@H]1C[C@@H]1c1ccccc1` [Compound 44, 12-((3S,4S)-1-(4-((3S,4S)-3,4-Bis(((1S,2R)-2-phenylcyclopropyl)carbamoyl)pyrrolidine-1-carbonyl)benzoyl)-4-(((1S,2R)-2-phenylcyclo-propyl)carbamoyl)pyrrolidine-3-carboxamido)-dodecyl 2-(dimethylamino)acetate]: the EC50 was 0.7 to 5 nM in experiment [1], 4.7 nM in experiment [1] (setting [7]), 0.05 to 0.2 nM in experiment [2] and 0.05 nM in experiment [2] (setting [8]). Besides, the Emax in experiment [1] amounted to 140%; in experiment [2], 100%.

Consider `CC(C)(C)OC(=O)CCOCCOCCOCCNC(=O)CCCCCCCCCCCNC(=O)[C@@H]1CN(C(=O)c2ccc(C(=O)N3C[C@@H](C(=O)N[C@H]4C[C@@H]4c4ccccc4)[C@H](C(=O)N[C@H]4C[C@@H]4c4ccccc4)C3)cc2)C[C@H]1C(=O)N[C@H]1C[C@@H]1c1ccccc1` [Compound 56, tert-Butyl 1-((3S,4S)-1-(4-((3S,4S)-3,4-bis(((1S,2R)-2-phenylcyclopropyl)carbamoyl)pyrrolidine-1carbonyl)benzoyl)-4-(((1S,2R)-2-phenylcyclopropyl)-carbamoyl)pyrrolidin-3-yl)-1,14-dioxo-18,21,24-trioxa-2,15-diazaheptacosan-27-oate], for which the Emax in experiment [1] is 140%; in experiment [2], 100%. Also, the concentration giving a half-maximal response (EC50) in experiment [1] (setting [3]) was 21 nM; in experiment [2] (setting [4]), 2.8 nM.

For the compound `O=C(NCCCCCCCCCCCCOCc1ccc([N+](=O)[O-])cc1)[C@@H]1CN(C(=O)c2ccc(C(=O)N3C[C@@H](C(=O)N[C@H]4C[C@@H]4c4ccccc4)[C@H](C(=O)N[C@H]4C[C@@H]4c4ccccc4)C3)cc2)C[C@H]1C(=O)N[C@H]1C[C@@H]1c1ccccc1` [Compound 51, (3S,4S)-1-(4-((3S,4S)-3,4-Bis(((1S,2R)-2-phenylcyclo-propyl)carbamoyl)pyrrolidine-1-carbonyl)-benzoyl)-N^3-(12-((4-nitrobenzyl)oxy)dodecyl)-N^4-((1S,2R)-2-phenyl-cyclopropyl)pyrrolidine-3,4-dicarboxamide], the results for the Emax in experiment [1] and in experiment [2] were 230% and 110%, respectively. Moreover, the EC50 in experiment [1] (setting [7]) came to 0.85 nM; in experiment [2] (setting [8]), 0.25 nM.

As to `O=C(O)/C=C/C(=O)NCC(=O)OCCCCCCCCCCCCNC(=O)[C@@H]1CN(C(=O)c2ccc(C(=O)N3C[C@@H](C(=O)N[C@H]4C[C@@H]4c4ccccc4)[C@H](C(=O)N[C@H]4C[C@@H]4c4ccccc4)C3)cc2)C[C@H]1C(=O)N[C@H]1C[C@@H]1c1ccccc1` [Compound 82, (E)-4-((2-((12-((3S,4S)-1-(4-((3S,4S)-3,4-Bis(((1S,2R)-2-phenylcyclopropyl)carbamoyl)-pyrrolidine-1-carbonyl)benzoyl)-4-(((1S,2R)-2-phenylcyclopropyl)carbamoyl)pyrrolidine-3-carboxamido)dodecyl)oxy)-2-oxoethyl)amino)-4-oxobut-2-enoic acid], the Emax in experiment [1] was 60%; in experiment [2], 100%. In addition, the figures for the concentration giving a half-maximal response (EC50) in experiment [1] (setting [9]) and in experiment [2] (setting [10]) were 7 nM and 0.32 nM, respectively.

`O=C(CNC(=O)c1ccc(C(=O)O)cc1)OCCCCCCCCCCCCNC(=O)[C@@H]1CN(C(=O)c2ccc(C(=O)N3C[C@@H](C(=O)N[C@H]4C[C@@H]4c4ccccc4)[C@H](C(=O)N[C@H]4C[C@@H]4c4ccccc4)C3)cc2)C[C@H]1C(=O)N[C@H]1C[C@@H]1c1ccccc1` [Compound 80, 4-((2-((12-((3S,4S)-1-(4-((3S,4S)-3,4-Bis(((1S,2R)-2-phenylcyclopropyl)carbamoyl)pyrrolidine-1-carbonyl)-benzoyl)-4-(((1S,2R)-2-phenylcyclopropyl)carbamoyl)-pyrrolidine-3-carboxamido)-dodecyl)oxy)-2-oxoethyl)carbamoyl)benzoic acid]: the Emax in experiment [1] turned out to be 60%; in experiment [2] it was 100%. Further, the EC50 stood at 5 nM in experiment [1] (setting [9]) and 0.17 nM in experiment [2] (setting [10]).

On to `CC(C)(C)OC(=O)NNC(=O)OCCCCCCCCCCCCNC(=O)[C@@H]1CN(C(=O)c2ccc(C(=O)N3C[C@@H](C(=O)N[C@H]4C[C@@H]4c4ccccc4)[C@H](C(=O)N[C@H]4C[C@@H]4c4ccccc4)C3)cc2)C[C@H]1C(=O)N[C@H]1C[C@@H]1c1ccccc1` [Compound 71, 1-(12-((3S,4S)-1-(4-((3S,4S)-3,4-Bis(((1S,2R)-2-phenylcyclopropyl)carbamoyl)pyrrolidine-1-carbonyl)-benzoyl)-4-(((1S,2R)-2-phenylcyclopropyl)carbamoyl)-pyrrolidine-3-carboxamido)-dodecyl) 2-tert-butyl hydrazine-1,2-dicarboxylate], for which the Emax in experiment [1] is 220%; in experiment [2], 100%. Moreover, the concentration for a half-maximal effect (EC50) in experiment [1] (setting [5]) was 25 nM; in experiment [2] (setting [6]) it was 5 nM.

Take `COC(=O)CCOCCOCCOCCNC(=O)[C@@H]1CN(C(=O)c2ccc(C(=O)N3C[C@@H](C(=O)N[C@H]4C[C@@H]4c4ccccc4)[C@H](C(=O)N[C@H]4C[C@@H]4c4ccccc4)C3)cc2)C[C@H]1C(=O)N[C@H]1C[C@@H]1c1ccccc1` [Compound 29, Methyl 1-((3S,4S)-1-(4-((3S,4S)-3,4-bis(((1S,2R)-2-phenylcyclopropyl)carbamoyl)pyrrolidine-1-carbonyl)benzoyl)-4-(((1S,2R)-2-phenylcyclopropyl)carbamoyl)-pyrrolidin-3-yl)-1-oxo-5,8,11-trioxa-2-azatetradecan-14-oate]: the Emax in experiment [2] stood at 110%. Besides, the EC50 in experiment [2] (setting [11]) was 40 nM.

`COC(=O)CCCCCCCCCNC(=O)[C@@H]1CN(C(=O)c2ccc(C(=O)N3C[C@@H](C(=O)N[C@H]4C[C@@H]4c4ccccc4)[C@H](C(=O)N[C@H]4C[C@@H]4c4ccccc4)C3)cc2)C[C@H]1C(=O)N[C@H]1C[C@@H]1c1ccccc1` [Compound 4, Methyl 10-((3S,4S)-1-(4-((3S,4S)-3,4-bis(((1S,2R)-2-phenylcyclopropyl)carbamoyl)pyrrolidine-1-carbonyl)-benzoyl)-4-(((1S,2R)-2-phenylcyclopropyl)-carbamoyl)-pyrrolidine-3-carboxamido)-decanoate]: the Emax in experiment [2] amounted to 100%.

Take `COC(=O)CCCCCCCCCCCNC(=O)[C@@H]1CN(C(=O)c2ccc(C(=O)N3C[C@@H](C(=O)N[C@H]4C[C@@H]4c4ccccc4)[C@H](C(=O)N[C@H]4C[C@@H]4c4ccccc4)C3)cc2)C[C@H]1C(=O)N[C@H]1C[C@@H]1c1ccccc1` [Compound 3, Methyl 12-((3S,4S)-1-(4-((3S,4S)-3,4-bis(((1S,2R)-2-phenylcyclopropyl)carbamoyl)pyrrolidine-1-carbonyl)-benzoyl)-4-(((1S,2R)-2-phenylcyclopropyl)-carbamoyl)-pyrrolidine-3-carboxamido)-dodecanoate]: in experiment [1], the Emax is 100%. In addition, in experiment [1] (read-out: EC50 (nM) (mouse): EC50 TNF-α release from mouse macrophages, Table 1), the 50% effective concentration (EC50) worked out at 1.4 nM.

Take `CC(C)(C)OC(=O)CCOCCOCCOCCNC(=O)[C@@H]1CN(C(=O)c2ccc(C(=O)N3C[C@@H](C(=O)N[C@H]4C[C@@H]4c4ccccc4)[C@H](C(=O)N[C@H]4C[C@@H]4c4ccccc4)C3)cc2)C[C@H]1C(=O)N[C@H]1C[C@@H]1c1ccccc1` [Compound 28, tert-Butyl 1-((3S,4S)-1-(4-((3S,4S)-3,4-bis(((1S,2R)-2-phenylcyclopropyl)carbamoyl)pyrrolidine-1-carbonyl)-benzoyl)-4-(((1S,2R)-2-phenylcyclopropyl)carbamoyl)-pyrrolidin-3-yl)-1-oxo-5,8,11-trioxa-2-azatetradecan-14-oate]: the EC50 in experiment [2] (setting [11]) was 3.1 nM.
